Measured values as given in paper PMC12288536, “Development of an atrazine immunoassay based on highly catalytically active Au@PtNPs and specific nanobody” (Research Square, 2025).

Legend:
Nanobody-26 = assay: ic-ELISA based on atrazine nanobody (indirect competitive); assay type: binding, alpaca; conditions: for IC50 (Nanobody): coating antigen 2e-BSA; for CR% (Nanobody): cross-reaction = IC50(atrazine)/IC50(analog)
Experimental: In this study, ic-ELISA was first used to assess the effect of two coating antigens on the sensitivity of the nanobody. The optimal concentrations of nanobody and coating antigen were confirmed by the checkerboard method, and the sensitivity of nanobody was evaluated under optimal conditions. Detailed procedures for sensitivity assessment of nanobody were presented in the Supplementary Material.
Cross-reactivity evaluation was performed using the developed ic-ELISA for atrazine, simazine, terbuthylazine, terbutryn, cyanuric acid, ametryn, melamine, atrazine-2-hydroxy and 2-chloro-4,6-diamino-1,3,5-triazine. The above compounds were prepared into standard solutions at certain concentrations, and the standard inhibition curves were established. The cross-reactions were calculated according to the respective IC50 obtained from the standard inhibition curves and the following formula: Cross-reaction(CR%)=IC50(atrazine)∕IC50(the other structurally similar compound)

Au@PtNPs-nanobody probe = assay: dc-ELISA based on Au@PtNPs-nanobody probe (direct competitive), incl. matrix effect evaluation; assay type: binding, alpaca; conditions: for CR% (Au@PtNPs-nanobody): cross-reaction = IC50(atrazine)/IC50(analog); for IC50 (Au@PtNPs-nanobody): optimal conditions, 1×PBS containing 5% methanol
Experimental: The sodium chloride interference method was used to determine the optimal conditions for coupling. Adjust the Au@PtNPs-145 nm (10 mL) to the optimal pH with 0.1 M K2CO3, then the optimal amount of nanobody and BSA (0.1 g) were added dropwise to the solution and stirred for 30 minutes. PEG20000 (0.05 g) was then added to the above solution and incubated at 4°C overnight after stirring for 30 minutes. The probe was purified by fractionation and centrifugation at 4°C, and the precipitate was collected and re-dissolved in 1 mL of probe diluent (pH 7.2, PBS buffer containing 1% sucrose, 0.1% BSA, 0.1% Tween 20 and 0.1% alginate) at 4°C for storage and further use.
Au@PtNPs-nanobody was used to develop a new dc-ELISA, and the optimal concentrations of probe and coating antigen were confirmed by the checkerboard method, and the sensitivity of dc-ELISA was evaluated under optimal conditions. The cross-reactivity of the dc-ELISA to atrazine analogs was also evaluated to compare with the specificity of ic-ELISA.
Tap water, river water and soil without atrazine were selected as samples for the evaluation of matrix effects. The effect of tap water, river water and soil on the sensitivity of the detection method was evaluated using two newly developed immunoassay methods based on Au@PtNPs-nanobody. The accuracy of the developed method for real samples was also verified using high performance liquid chromatography (HPLC). The solid sample (10 g) was simultaneously extracted with 20 ml of methanol in a vortex mixer for 15 minutes. The mixture was then centrifuged at 4000 rpm for 5 minutes and the supernatant was collected, diluted appropriately and analyzed by HPLC. After confirming that the samples were free of atrazine, atrazine solution was added to the samples so that the final concentrations of atrazine in the samples were 1 μg/mL, 5 μg/mL, and 10 μg/mL, and then the samples were subjected to dc-ELISA. HPLC was also used for validation.
Considering the real samples detection, complex matrix can affect the recognition and binding between antibodies and coating antigens/analytes, which seriously interferes with the performance of the immunoassay and affects the accuracy of the analytical results. Therefore, matrix effects should be minimized or eliminated during sample analysis to ensure the accuracy of the immunoassay method. The simplest method for matrix elimination or reduction is to dilute the sample with the assay buffer. In this study, tap water, river water and soil were selected for matrix effect evaluation. The tap water samples confirmed to be none of atrazine were diluted directly with 1×PBS to a total dilution ratio of 2-, 4-, 8-, and 16-fold, and then different concentrations of atrazine solution were prepared with these obtained buffer solutions, respectively. […] But, tap water samples diluted […] had higher IC50 when compared with assay buffer or other diluted samples. […] Therefore, the 4-fold dilution was selected for the tap water samples. Similarly, river water samples diluted 4-fold and 8-fold had higher IC50 values compared to assay buffer or other diluted samples. […] Therefore, 16-fold dilution was selected for the river water sample (Fig. 4C). Soil samples without atrazine were used as blank samples and extracted with methanol, then diluted with 1×PBS resulting in a total dilution ratio of 10, 20, 40, 60 and 80-fold. Atrazine standard solutions were prepared using the above obtained buffer solutions. […] When the soil matrix was diluted 60 and 80-fold, there was no significant difference between their maximum absorbance and IC50 . Therefore, the 60-fold dilution was selected for the next spike and recovery study. Spiked-recovery validation using both HPLC and dc-ELISA to evaluate the precision of the dc-ELISA. […] Also, the results of the dc-ELISA method were approximately consistent with that of HPLC.

SMILES: Nc1nc(N)nc(Cl)n1 [2-chloro-4,6-diamino-1,3,5-triazine]
- IC50 (Nanobody) (Nanobody-26): 1.1 µg/mL
- CR% (Nanobody) (Nanobody-26): 5.40%
- CR% (Au@PtNPs-nanobody) (Au@PtNPs-nanobody probe): 3.42%
- IC50 (Au@PtNPs-nanobody) (Au@PtNPs-nanobody probe): 0.93 µg/mL

SMILES: CCNc1nc(NC(C)C)nc(SC)n1 [Ametryn]
- IC50 (Nanobody) (Nanobody-26): 0.23 µg/mL
- CR% (Nanobody) (Nanobody-26): 27.4%
- CR% (Nanobody) (Nanobody-26; listed as ametryn): about 30%
- CR% (Au@PtNPs-nanobody) (Au@PtNPs-nanobody probe): 3.55%
- IC50 (Au@PtNPs-nanobody) (Au@PtNPs-nanobody probe): 0.90 µg/mL

SMILES: CCNc1nc(NC(C)C)[nH]c(=O)n1 [Atrazine-2-hydroxy]
- IC50 (Nanobody) (Nanobody-26): > 100 µg/mL
- CR% (Nanobody) (Nanobody-26): < 0.1%
- CR% (Au@PtNPs-nanobody) (Au@PtNPs-nanobody probe): < 0.1%
- IC50 (Au@PtNPs-nanobody) (Au@PtNPs-nanobody probe): > 100 µg/mL

SMILES: CCNc1nc(Cl)nc(NC(C)C)n1 [Atrazine]
- IC50 (Nanobody) (Nanobody-26): 0.062 µg/mL
- CR% (Nanobody) (Nanobody-26): 100%
- CR% (Au@PtNPs-nanobody) (Au@PtNPs-nanobody probe): 100%
- IC50 (Au@PtNPs-nanobody) (Au@PtNPs-nanobody probe): 0.032 µg/mL

SMILES: Oc1nc(O)nc(O)n1 [Cyanuric acid]
- IC50 (Nanobody) (Nanobody-26): > 100 µg/mL
- CR% (Nanobody) (Nanobody-26): < 0.1%
- CR% (Au@PtNPs-nanobody) (Au@PtNPs-nanobody probe): < 0.1%
- IC50 (Au@PtNPs-nanobody) (Au@PtNPs-nanobody probe): > 100 µg/mL

SMILES: Nc1nc(N)nc(N)n1 [Melamine]
- IC50 (Nanobody) (Nanobody-26): > 100 µg/mL
- CR% (Nanobody) (Nanobody-26): < 0.1%
- CR% (Au@PtNPs-nanobody) (Au@PtNPs-nanobody probe): < 0.1%
- IC50 (Au@PtNPs-nanobody) (Au@PtNPs-nanobody probe): > 100 µg/mL

SMILES: CCNc1nc(Cl)nc(NCC)n1 [Simazine]
- IC50 (Nanobody) (Nanobody-26): 0.18 µg/mL
- CR% (Nanobody) (Nanobody-26): 33.6%
- CR% (Nanobody) (Nanobody-26; listed as simazine): about 30%
- CR% (Au@PtNPs-nanobody) (Au@PtNPs-nanobody probe): 6.01%
- CR% (Au@PtNPs-nanobody) (Au@PtNPs-nanobody probe; listed as simazine): less than 7%
- IC50 (Au@PtNPs-nanobody) (Au@PtNPs-nanobody probe): 0.53 µg/mL

SMILES: CCNc1nc(Cl)nc(NC(C)(C)C)n1 [Terbuthylazine]
- IC50 (Nanobody) (Nanobody-26): 0.085 µg/mL
- CR% (Nanobody) (Nanobody-26): 72.7%
- CR% (Au@PtNPs-nanobody) (Au@PtNPs-nanobody probe): 10.9%
- IC50 (Au@PtNPs-nanobody) (Au@PtNPs-nanobody probe): 0.29 µg/mL

SMILES: CCNc1nc(NC(C)(C)C)nc(SC)n1 [Terbutryn]
- IC50 (Nanobody) (Nanobody-26): > 100 µg/mL
- CR% (Nanobody) (Nanobody-26): < 0.1%
- CR% (Nanobody) (Nanobody-26; listed as terbutryn): greater than 70%
- CR% (Au@PtNPs-nanobody) (Au@PtNPs-nanobody probe): < 0.1%
- CR% (Au@PtNPs-nanobody) (Au@PtNPs-nanobody probe; listed as terbutryn): greater than 10%
- IC50 (Au@PtNPs-nanobody) (Au@PtNPs-nanobody probe): > 100 µg/mL

SMILES: CCNc1nc(N)nc(Cl)n1 [deisopropylatrazine]
- CR% (Au@PtNPs-nanobody) (Au@PtNPs-nanobody probe): less than 7%
